Measurements as given in PubChem BioAssay AID2433 (Vanderbilt High Throughput Screening Facility, 2010).
Active and inactive are the calls of the source.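 Rule for the calls: active = a concentration-response curve whose fit quality R2 exceeds 0.5; inactive = the rest.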

Biological target: Muscarinic acetylcholine receptor M5 (Homo sapiens) (UniProt P08912)
Assay: M5 receptor positive allosteric modulation off-target check, dose response, selectivity assay for M1 muscarinic PAM project, cell-based, CHO-K1 M5, Fluo-4 calcium, ACh EC20 (AID 2433)
Settings: CHO-K1 M5 cells; for % of max ACh response: at 30 µM (top of the series)

Chain of Muscarinic acetylcholine receptor M5 (Homo sapiens) (P08912 whole entry, looked up): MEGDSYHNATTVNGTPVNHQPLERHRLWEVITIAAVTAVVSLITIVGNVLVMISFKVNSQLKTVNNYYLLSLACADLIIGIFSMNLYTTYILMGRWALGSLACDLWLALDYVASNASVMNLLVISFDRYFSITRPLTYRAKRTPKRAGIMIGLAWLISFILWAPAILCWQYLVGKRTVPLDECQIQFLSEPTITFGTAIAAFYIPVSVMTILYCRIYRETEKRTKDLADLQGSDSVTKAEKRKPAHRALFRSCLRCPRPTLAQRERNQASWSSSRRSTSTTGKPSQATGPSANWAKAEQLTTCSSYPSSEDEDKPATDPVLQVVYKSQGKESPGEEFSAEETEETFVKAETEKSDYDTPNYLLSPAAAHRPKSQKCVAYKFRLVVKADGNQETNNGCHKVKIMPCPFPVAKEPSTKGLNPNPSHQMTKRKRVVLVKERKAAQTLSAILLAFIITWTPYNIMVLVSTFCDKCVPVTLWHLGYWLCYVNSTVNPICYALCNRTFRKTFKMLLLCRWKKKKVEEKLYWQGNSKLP

Cn1cc(-c2ccc(CN3C(=O)C(=O)c4ccccc43)cc2)cn1
EC50: inactive

Cn1cc(-c2cc(F)c(CN3C(=O)C(=O)c4ccccc43)c(F)c2)cn1
% of max ACh response: inactive

Cn1cc(-c2ccc(CN3C(=O)C(=O)c4ccccc43)c(F)c2)cn1
% of max ACh response: inactive
